Assays:
HCT-116 = experiment: Antiproliferative activity against human HCT116 cells incubated for 3 days by MTT assay; assay type: functional, cell-based; settings: HCT-116, 72 h
A549 [1] = experiment: Antiproliferative activity against human A549 cells incubated for 3 days by MTT assay; assay type: functional, cell-based; settings: A549, 72 h
HepG2 [2] = experiment: Antiproliferative activity against human HepG2 cells incubated for 3 days by MTT assay; assay type: functional, cell-based; settings: HepG2, 72 h
K562/Adr [3] = experiment: Potency index, ratio of doxorubicin IC50 to compound IC50 for human K562/ADR cells; assay type: functional
K562/Adr [4] = experiment: Cytotoxicity against human K562/ADR cells incubated for 72 hrs by CCK8 assay; assay type: functional, cell-based
K562 [5] = experiment: Potency index, ratio of doxorubicin IC50 to compound IC50 for human K562 cells; assay type: functional
[6] = Resistance index, ratio of IC50 for human K562/ADR cells to IC50 for human K562 cells; assay type: functional
K562 [7] = experiment: Cytotoxicity against human K562 cells incubated for 72 hrs by CCK8 assay; assay type: functional, cell-based; settings: K562, 72 h
A549 [8] = experiment: Antiproliferative activity against human A549 cells incubated for 24 hrs by MTT assay; assay type: functional, cell-based; settings: A549, 24 h
Calu-1 = experiment: Antiproliferative activity against human Calu-1 cells incubated for 24 hrs by MTT assay; assay type: functional, cell-based; settings: Calu-1, 24 h
HeLa [9] = experiment: Antiproliferative activity against human HeLa cells incubated for 24 hrs by MTT assay; assay type: functional, cell-based
SMMC-7721 = experiment: Antiproliferative activity against human SMMC-7721 cells incubated for 48 hrs by MTT assay; assay type: functional, cell-based; settings: SMMC-7721, 48 h
A549 [10] = experiment: Antiproliferative activity against human A549 cells incubated for 72 hrs by MTT assay; assay type: functional, cell-based; settings: A549, 72 h
SW480 = experiment: Antiproliferative activity against human SW480 cells incubated for 48 hrs by MTT assay; assay type: functional, cell-based; settings: SW480, 48 h
HL-60 = experiment: Antiproliferative activity against human HL-60 cells incubated for 48 hrs by MTT assay; assay type: functional, cell-based; settings: HL-60, 48 h
MCF7 = experiment: Antiproliferative activity against human MCF7 cells incubated for 48 hrs by MTT assay; assay type: functional, cell-based; settings: MCF7, 48 h
HeLa [11] = experiment: Antiproliferative activity against human HeLa cells incubated for 48 hrs by MTT assay; assay type: functional, cell-based
HepG2 [12] = experiment: Antiproliferative activity against human HepG2 cells incubated for 48 hrs by MTT assay; assay type: functional, cell-based; settings: HepG2, 48 h
A549 [13] = experiment: Antiproliferative activity against human A549 cells incubated for 48 hrs by MTT assay; assay type: functional, cell-based; settings: A549, 48 h

SMILES | IC50 (HCT-116) | IC50 (A549 [1]) | IC50 (HepG2 [2]) | IC50 (A549 [8]) | IC50 (Calu-1) | IC50 (HeLa [9]) | also measured
COc1cc([C@@H]2c3cc4c(cc3[C@@H](NC(=S)NC(=O)c3ccc(Cl)cc3)[C@H]3COC(=O)[C@H]23)OCO4)cc(OC)c1OC | 100 nM | 100 nM | 100 nM |  |  |  | 
COc1cc([C@@H]2c3cc4c(cc3[C@@H](NC(=S)NC(=O)c3cccs3)[C@H]3COC(=O)[C@H]23)OCO4)cc(OC)c1OC | 100 nM | 100 nM | 100 nM |  |  |  | 
COc1cc([C@@H]2c3cc4c(cc3[C@@H](NC(=S)NC(=O)c3ccc(F)cc3)[C@H]3COC(=O)[C@H]23)OCO4)cc(OC)c1OC | 100 nM | 100 nM | 100 nM |  |  |  | 
C=CC(=O)O[C@@H]1c2cc3c(cc2[C@@H](c2cc(OC)c(OC)c(OC)c2)[C@H]2C(=O)OC[C@@H]21)OCO3 |  |  |  |  |  |  | Ratio IC50 (K562/Adr [3]): 2.2; IC50 (K562/Adr [4]): 11 nM; Ratio IC50 (K562 [5]): 2.2; Ratio IC50 [6]: 1.1; IC50 (K562 [7]): 11 nM
COc1cc([C@@H]2c3cc4c(cc3[C@@H](NC(=S)NC(=O)c3ccccc3Br)[C@H]3COC(=O)[C@H]23)OCO4)cc(OC)c1OC | 100 nM | 100 nM | 100 nM |  |  |  | 
COc1cc([C@@H]2c3cc4c(cc3[C@@H](NC(=S)NC(=O)c3cccc5ccccc35)[C@H]3COC(=O)[C@H]23)OCO4)cc(OC)c1OC | 100 nM | 100 nM | 100 nM |  |  |  | 
COc1cc([C@@H]2c3cc4c(cc3[C@H](OC(=O)/C=C/c3ccc(F)cc3)[C@H]3COC(=O)[C@H]23)OCO4)cc(OC)c1OC |  |  |  |  |  |  | IC50 (K562/Adr [4]): 11 nM; Ratio IC50 [6]: 1.1; IC50 (K562 [7]): 11 nM
COc1ccc(C2SCCC(CCCCC(=O)O[C@H]3c4cc5c(cc4[C@@H](c4cc(OC)c(OC)c(OC)c4)[C@H]4C(=O)OC[C@@H]43)OCO5)S2)cc1O (stereo not given in full) |  |  |  | 2680 nM | 2680 nM | 2680 nM | 
COc1ccc(C2SCCC(CCCCC(=O)O[C@H]3c4cc5c(cc4[C@@H](c4cc(OC)c(OC)c(OC)c4)[C@H]4C(=O)OC[C@@H]43)OCO5)S2)cc1OC (stereo not given in full) |  |  |  | 2680 nM | 2680 nM | 2680 nM | 
COc1cc([C@@H]2c3cc4c(cc3[C@H](OC(=O)/C=C/c3ccc(C)cc3)[C@H]3COC(=O)[C@H]23)OCO4)cc(OC)c1OC |  |  |  |  |  |  | IC50 (K562/Adr [4]): 11 nM; Ratio IC50 [6]: 1.1; IC50 (K562 [7]): 11 nM
COc1cc([C@@H]2c3cc4c(cc3[C@H](OC(=O)CCCCC3CCSC(c5ccc(Cl)cc5)S3)[C@H]3COC(=O)[C@H]23)OCO4)cc(OC)c1OC (stereo not given in full) |  |  |  | 2680 nM | 2680 nM | 2680 nM | 
COc1cc([C@@H]2c3cc4c(cc3[C@H](OC(=O)CCCCC3CCSC(c5ccccc5)S3)[C@H]3COC(=O)[C@H]23)OCO4)cc(OC)c1OC (stereo not given in full) |  |  |  | 2680 nM | 2680 nM | 2680 nM | 
COc1cc([C@@H]2c3cc4c(cc3[C@@H](NC(=S)NC(=O)c3cccc(C)c3)[C@H]3COC(=O)[C@H]23)OCO4)cc(OC)c1OC | 100 nM | 100 nM | 100 nM |  |  |  | 
COc1cc([C@@H]2c3cc4c(cc3[C@@H](NC(=S)NC(=O)c3cccc(Cl)c3)[C@H]3COC(=O)[C@H]23)OCO4)cc(OC)c1OC | 100 nM | 100 nM | 100 nM |  |  |  | 
COc1cc([C@@H]2c3cc4c(cc3[C@@H](NC(=S)NC(=O)c3ccccc3C)[C@H]3COC(=O)[C@H]23)OCO4)cc(OC)c1OC | 100 nM | 100 nM | 100 nM |  |  |  | 
COc1cc([C@@H]2c3cc4c(cc3[C@@H](NC(=S)NC(=O)c3ccccc3Cl)[C@H]3COC(=O)[C@H]23)OCO4)cc(OC)c1OC | 100 nM | 100 nM | 100 nM |  |  |  | 
CCCC(=O)OC[C@H]1O[C@H](OCc2cn([C@@H]3c4cc5c(cc4[C@@H](c4cc(OC)c(O)c(OC)c4)[C@H]4C(=O)OC[C@@H]43)OCO5)nn2)[C@H](OC(=O)CCC)[C@@H](OC(=O)CCC)[C@H]1OC(=O)CCC |  |  |  |  |  |  | IC50 (SMMC-7721): 490 nM; IC50 (A549 [10]): 490 nM; IC50 (SW480): 490 nM; IC50 (HL-60): 490 nM; IC50 (MCF7): 490 nM

SMILES | IC50 (HCT-116) | IC50 (A549 [1]) | IC50 (HepG2 [2]) | IC50 (A549 [8]) | IC50 (Calu-1) | IC50 (HeLa [9]) | also measured
COc1cccc(/C=C/C(=O)O[C@H]2c3cc4c(cc3[C@@H](c3cc(OC)c(OC)c(OC)c3)[C@H]3C(=O)OC[C@@H]32)OCO4)c1 |  |  |  |  |  |  | IC50 (K562/Adr [4]): 11 nM; Ratio IC50 [6]: 1.1; IC50 (K562 [7]): 11 nM
COc1cc([C@@H]2c3cc4c(cc3[C@H](OC(=O)CCCCC3CCSC(c5ccc(Br)cc5)S3)[C@H]3COC(=O)[C@H]23)OCO4)cc(OC)c1OC (stereo not given in full) |  |  |  | 2680 nM | 2680 nM | 2680 nM | 
COc1cc([C@@H]2c3cc4c(cc3[C@H](OC(=O)CCCCC3CCSC(c5ccc(Cl)cc5Cl)S3)[C@H]3COC(=O)[C@H]23)OCO4)cc(OC)c1OC (stereo not given in full) |  |  |  | 2680 nM | 2680 nM | 2680 nM | 
COc1cc([C@@H]2c3cc4c(cc3[C@H](OC(=O)CCCCC3CCSC(c5ccccc5C)S3)[C@H]3COC(=O)[C@H]23)OCO4)cc(OC)c1OC (stereo not given in full) |  |  |  | 2680 nM | 2680 nM | 2680 nM | 
COc1cc([C@@H]2c3cc4c(cc3[C@@H](O[C@@H]3CC[C@@H](O)[C@H](C)O3)[C@H]3COC(=O)[C@H]23)OCO4)cc(OC)c1O |  |  |  |  |  |  | IC50 (HeLa [11]): 41.6 nM; IC50 (HepG2 [12]): 41.6 nM; IC50 (A549 [13]): 41.6 nM; IC50 (MCF7): 41.6 nM
COc1cc([C@@H]2c3cc4c(cc3[C@H](OC(=O)CCCCC3CCSC(c5cccc(Cl)c5Cl)S3)[C@H]3COC(=O)[C@H]23)OCO4)cc(OC)c1OC (stereo not given in full) |  |  |  | 2680 nM | 2680 nM | 2680 nM | 
COc1cc([C@@H]2c3cc4c(cc3[C@H](OC(=O)/C=C/c3ccco3)[C@H]3COC(=O)[C@H]23)OCO4)cc(OC)c1OC |  |  |  |  |  |  | IC50 (K562/Adr [4]): 11 nM; Ratio IC50 [6]: 1.1; IC50 (K562 [7]): 11 nM
COc1cc([C@@H]2c3cc4c(cc3[C@H](OC(=O)/C=C/c3ccc(Cl)cc3)[C@H]3COC(=O)[C@H]23)OCO4)cc(OC)c1OC |  |  |  |  |  |  | IC50 (K562/Adr [4]): 11 nM; Ratio IC50 [6]: 1.1; IC50 (K562 [7]): 11 nM
COc1ccc(/C=C/C(=O)O[C@H]2c3cc4c(cc3[C@@H](c3cc(OC)c(OC)c(OC)c3)[C@H]3C(=O)OC[C@@H]32)OCO4)cc1 |  |  |  |  |  |  | IC50 (K562/Adr [4]): 11 nM; Ratio IC50 [6]: 1.1; IC50 (K562 [7]): 11 nM
COc1ccccc1C1SCCC(CCCCC(=O)O[C@H]2c3cc4c(cc3[C@@H](c3cc(OC)c(OC)c(OC)c3)[C@H]3C(=O)OC[C@@H]32)OCO4)S1 (stereo not given in full) |  |  |  | 2680 nM | 2680 nM | 2680 nM | 
COc1cc([C@@H]2c3cc4c(cc3[C@H](OC(=O)CCCCC3CCSC(c5ccccc5Cl)S3)[C@H]3COC(=O)[C@H]23)OCO4)cc(OC)c1OC (stereo not given in full) |  |  |  | 2680 nM | 2680 nM | 2680 nM | 
COc1cc([C@@H]2c3cc4c(cc3[C@H](OC(=O)/C=C/c3cccc(Cl)c3)[C@H]3COC(=O)[C@H]23)OCO4)cc(OC)c1OC |  |  |  |  |  |  | IC50 (K562/Adr [4]): 11 nM; Ratio IC50 [6]: 1.1; IC50 (K562 [7]): 11 nM
COc1cc([C@@H]2c3cc4c(cc3[C@@H](NC(=S)NC(=O)c3ccccc3I)[C@H]3COC(=O)[C@H]23)OCO4)cc(OC)c1OC | 100 nM | 100 nM | 100 nM |  |  |  | 
COc1cc([C@@H]2c3cc4c(cc3[C@@H](O[C@@H]3CC[C@@H](O)[C@H](C(C)C)O3)[C@H]3COC(=O)[C@H]23)OCO4)cc(OC)c1O |  |  |  |  |  |  | IC50 (HeLa [11]): 41.6 nM; IC50 (HepG2 [12]): 41.6 nM; IC50 (A549 [13]): 41.6 nM; IC50 (MCF7): 41.6 nM
COc1cc([C@@H]2c3cc4c(cc3[C@H](OC(=O)CCCCC3CCSC(c5ccc(C(C)C)cc5)S3)[C@H]3COC(=O)[C@H]23)OCO4)cc(OC)c1OC (stereo not given in full) |  |  |  | 2680 nM | 2680 nM | 2680 nM | 
COc1cc([C@@H]2c3cc4c(cc3[C@@H](N)[C@H]3COC(=O)[C@H]23)OCO4)cc(OC)c1OC [4BETA-NH2-PODOPHYLLOTOXIN] | 100 nM | 100 nM | 100 nM |  |  |  | 

Source: ChEMBL document CHEMBL4818987, “Recent advances of podophyllotoxin/epipodophyllotoxin hybrids in anticancer activity, mode of action, and structure-activity relationship: An update (2010-2020)” (Eur J Med Chem, 2020)
